Assays:
[1] = biological target: Transcription initiation factor TFIID subunit 1 (Homo sapiens) (UniProt P21675); conditions: dose 10.0 µM
[2] = biological target: Bromodomain-containing protein 3 (Homo sapiens) (UniProt Q15059); conditions: dose 10.0 µM
Homo sapiens [3] = organism: Homo sapiens; conditions: dose 10.0 µM
[4] = biological target: Bromodomain-containing protein 7 (Homo sapiens) (UniProt Q9NPI1); conditions: dose 10.0 µM
[5] = biological target: Nuclear body protein SP140 (Homo sapiens) (UniProt Q13342); conditions: dose 10.0 µM
[6] = biological target: Beta-1 adrenergic receptor (Homo sapiens) (UniProt P08588); test: Binding affinity to Beta1 (unknown origin) assessed as specific binding at 10 uM relative to control
Sequence of Beta-1 adrenergic receptor (Homo sapiens) (P08588 whole entry, looked up, the tested form may be a part): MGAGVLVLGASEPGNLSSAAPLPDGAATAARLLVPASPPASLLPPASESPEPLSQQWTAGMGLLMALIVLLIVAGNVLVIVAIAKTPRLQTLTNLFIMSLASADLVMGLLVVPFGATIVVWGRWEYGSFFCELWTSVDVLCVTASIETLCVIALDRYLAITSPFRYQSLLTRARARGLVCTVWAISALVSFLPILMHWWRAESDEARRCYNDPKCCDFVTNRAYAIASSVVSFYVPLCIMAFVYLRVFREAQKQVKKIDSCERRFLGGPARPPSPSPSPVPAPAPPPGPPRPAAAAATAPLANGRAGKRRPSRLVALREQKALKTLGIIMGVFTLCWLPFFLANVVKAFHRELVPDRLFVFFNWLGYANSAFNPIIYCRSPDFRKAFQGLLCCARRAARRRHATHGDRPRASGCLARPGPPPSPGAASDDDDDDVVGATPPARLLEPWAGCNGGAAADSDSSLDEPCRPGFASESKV

[7] = biological target: ATPase family AAA domain-containing protein 2B (Homo sapiens) (UniProt Q9ULI0); conditions: dose 10.0 µM
Sequence of ATPase family AAA domain-containing protein 2B (Homo sapiens) (Q9ULI0 whole entry, the tested form may be a part): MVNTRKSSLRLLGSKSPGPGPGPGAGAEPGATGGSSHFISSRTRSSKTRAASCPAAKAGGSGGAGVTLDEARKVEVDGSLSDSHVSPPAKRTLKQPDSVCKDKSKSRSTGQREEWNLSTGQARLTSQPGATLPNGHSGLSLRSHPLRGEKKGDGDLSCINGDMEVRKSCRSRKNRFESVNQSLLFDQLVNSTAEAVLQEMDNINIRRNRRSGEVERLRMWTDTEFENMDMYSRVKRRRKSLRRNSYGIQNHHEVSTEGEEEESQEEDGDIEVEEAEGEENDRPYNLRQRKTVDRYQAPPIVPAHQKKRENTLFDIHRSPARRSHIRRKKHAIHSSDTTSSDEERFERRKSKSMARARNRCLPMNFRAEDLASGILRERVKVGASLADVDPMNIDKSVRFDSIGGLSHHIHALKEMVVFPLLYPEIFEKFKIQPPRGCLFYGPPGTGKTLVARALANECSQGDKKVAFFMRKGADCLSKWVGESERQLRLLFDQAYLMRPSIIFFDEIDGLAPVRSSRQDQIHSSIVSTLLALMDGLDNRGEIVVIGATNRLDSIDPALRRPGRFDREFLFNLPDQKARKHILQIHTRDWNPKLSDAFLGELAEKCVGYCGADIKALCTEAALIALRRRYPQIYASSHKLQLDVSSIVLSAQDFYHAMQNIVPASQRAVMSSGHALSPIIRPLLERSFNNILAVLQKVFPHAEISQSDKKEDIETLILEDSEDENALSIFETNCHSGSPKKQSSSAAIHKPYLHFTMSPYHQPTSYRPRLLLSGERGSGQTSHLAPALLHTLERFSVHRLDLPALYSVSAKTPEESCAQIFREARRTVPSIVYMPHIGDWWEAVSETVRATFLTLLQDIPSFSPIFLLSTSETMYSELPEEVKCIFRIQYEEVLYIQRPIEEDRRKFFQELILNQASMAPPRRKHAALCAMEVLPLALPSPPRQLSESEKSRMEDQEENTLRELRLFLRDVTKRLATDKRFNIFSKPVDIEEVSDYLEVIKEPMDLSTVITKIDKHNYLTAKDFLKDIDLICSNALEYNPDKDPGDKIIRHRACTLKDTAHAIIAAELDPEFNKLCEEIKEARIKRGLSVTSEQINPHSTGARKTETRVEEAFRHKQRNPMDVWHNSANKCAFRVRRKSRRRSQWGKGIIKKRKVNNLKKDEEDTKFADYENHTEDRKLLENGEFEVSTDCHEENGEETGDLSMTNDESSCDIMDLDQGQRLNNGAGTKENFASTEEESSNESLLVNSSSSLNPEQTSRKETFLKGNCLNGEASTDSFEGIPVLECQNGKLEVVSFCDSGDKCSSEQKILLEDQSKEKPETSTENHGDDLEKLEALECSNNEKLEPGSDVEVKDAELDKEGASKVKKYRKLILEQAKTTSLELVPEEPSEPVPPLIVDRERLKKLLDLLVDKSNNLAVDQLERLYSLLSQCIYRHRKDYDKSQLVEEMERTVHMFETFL

[8] = biological target: KV channel (voltage-gated potassium channel family) (Homo sapiens, UniProt O43525+O43526+O95259+P16389+P17658+P22001+P22459+P22460+P48547+P51787+P56696+Q03721+Q09470+Q12809+Q14003+Q14721+Q16322+Q6PIU1+Q8NCM2+Q8TAE7+Q8TDN1+Q8TDN2+Q92953+Q96KK3+Q96L42+Q96PR1+Q96RP8+Q9BQ31+Q9H252+Q9H3M0+Q9NR82+Q9NS40+Q9NSA2+Q9NZV8+Q9UIX4+Q9UJ96+Q9UK17+Q9ULD8+Q9ULS6+Q9UQ05); test: Inhibition of KV channel (unknown origin) at 10 uM relative to control; assay type: protein assay
Homo sapiens [9] = organism: Homo sapiens; conditions: dose 10.0 µM; remark: listed apart in the source
[10] = biological target: Beta-1 adrenergic receptor (Homo sapiens) (UniProt P08588); test: Inhibition of Beta1 (unknown origin) at 10 uM relative to control
[11] = biological target: Transcription intermediary factor 1-alpha (Homo sapiens) (UniProt O15164); conditions: dose 10.0 µM
[12] = biological target: Bromodomain adjacent to zinc finger domain protein 2B (Homo sapiens) (UniProt Q9UIF8); conditions: dose 10.0 µM
[13] = biological target: 5-hydroxytryptamine receptor 6 (Homo sapiens) (UniProt P50406); test: Binding affinity to 5HT6 (unknown origin) assessed as specific binding at 10 uM relative to control
Peregrin (Homo sapiens) = biological target: T1, Peregrin (Homo sapiens) (UniProt P55201); conditions: dose 10.0 µM
T1 sequence (whole entry): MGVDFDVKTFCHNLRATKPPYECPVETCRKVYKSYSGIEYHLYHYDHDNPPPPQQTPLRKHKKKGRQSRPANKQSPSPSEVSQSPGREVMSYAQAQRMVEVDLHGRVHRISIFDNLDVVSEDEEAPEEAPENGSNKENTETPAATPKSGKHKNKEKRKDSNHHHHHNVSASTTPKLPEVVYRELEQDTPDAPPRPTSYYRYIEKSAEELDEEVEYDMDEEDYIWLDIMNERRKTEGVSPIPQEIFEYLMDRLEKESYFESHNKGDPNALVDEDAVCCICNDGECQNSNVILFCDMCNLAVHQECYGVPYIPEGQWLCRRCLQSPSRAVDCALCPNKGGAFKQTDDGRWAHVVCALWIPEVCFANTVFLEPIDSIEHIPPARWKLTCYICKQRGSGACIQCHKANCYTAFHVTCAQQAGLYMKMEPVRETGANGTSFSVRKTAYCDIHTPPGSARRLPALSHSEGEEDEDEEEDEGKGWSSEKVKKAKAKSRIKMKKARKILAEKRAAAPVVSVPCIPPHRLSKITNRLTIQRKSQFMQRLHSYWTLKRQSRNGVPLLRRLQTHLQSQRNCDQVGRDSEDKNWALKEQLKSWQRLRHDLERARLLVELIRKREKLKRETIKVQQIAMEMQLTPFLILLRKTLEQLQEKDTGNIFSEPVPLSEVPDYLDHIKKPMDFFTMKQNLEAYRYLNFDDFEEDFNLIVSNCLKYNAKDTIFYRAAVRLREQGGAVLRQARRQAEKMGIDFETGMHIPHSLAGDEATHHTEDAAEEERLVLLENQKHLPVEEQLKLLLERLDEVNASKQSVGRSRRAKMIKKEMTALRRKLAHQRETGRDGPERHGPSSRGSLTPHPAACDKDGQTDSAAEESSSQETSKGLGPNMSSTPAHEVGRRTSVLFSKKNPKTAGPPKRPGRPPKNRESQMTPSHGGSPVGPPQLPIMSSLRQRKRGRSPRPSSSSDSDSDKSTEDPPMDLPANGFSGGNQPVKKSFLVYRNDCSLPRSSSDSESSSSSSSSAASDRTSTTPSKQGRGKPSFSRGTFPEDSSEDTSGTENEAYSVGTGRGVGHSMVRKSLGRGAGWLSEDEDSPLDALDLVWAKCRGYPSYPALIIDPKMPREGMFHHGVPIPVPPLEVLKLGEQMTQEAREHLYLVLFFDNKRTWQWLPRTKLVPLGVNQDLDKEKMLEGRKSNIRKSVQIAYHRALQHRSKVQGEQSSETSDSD

[14] = biological target: Transcription initiation factor TFIID subunit 1-like (Homo sapiens) (UniProt Q8IZX4); conditions: dose 10.0 µM
[15] = biological target: Protein polybromo-1 (Homo sapiens) (UniProt Q86U86); conditions: dose 10.0 µM
[16] = biological target: Bromodomain-containing protein 4 (Homo sapiens) (UniProt O60885); test: Binding affinity to BRD4 BD1 (unknown origin) assessed as change in entropy TdeltaS at 14 uM by Isothermal titration calorimetry
[17] = biological target: Beta-2 adrenergic receptor (Homo sapiens) (UniProt P07550); test: Binding affinity to Beta2 (unknown origin) assessed as specific binding at 10 uM relative to control
Sequence of Beta-2 adrenergic receptor (Homo sapiens) (P07550 whole entry, looked up): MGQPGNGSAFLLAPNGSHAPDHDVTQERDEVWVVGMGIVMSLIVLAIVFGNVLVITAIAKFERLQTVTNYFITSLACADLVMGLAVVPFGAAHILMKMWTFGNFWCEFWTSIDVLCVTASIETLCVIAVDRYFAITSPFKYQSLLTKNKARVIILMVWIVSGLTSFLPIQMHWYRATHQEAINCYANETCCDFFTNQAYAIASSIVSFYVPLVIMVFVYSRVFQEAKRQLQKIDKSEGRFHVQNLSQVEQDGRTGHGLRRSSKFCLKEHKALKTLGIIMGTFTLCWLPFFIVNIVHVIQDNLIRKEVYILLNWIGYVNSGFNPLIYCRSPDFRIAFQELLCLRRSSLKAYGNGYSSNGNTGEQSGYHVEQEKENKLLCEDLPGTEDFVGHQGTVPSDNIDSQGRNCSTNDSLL

Sequence of Transcription initiation factor TFIID subunit 1 (Homo sapiens) (P21675 whole entry): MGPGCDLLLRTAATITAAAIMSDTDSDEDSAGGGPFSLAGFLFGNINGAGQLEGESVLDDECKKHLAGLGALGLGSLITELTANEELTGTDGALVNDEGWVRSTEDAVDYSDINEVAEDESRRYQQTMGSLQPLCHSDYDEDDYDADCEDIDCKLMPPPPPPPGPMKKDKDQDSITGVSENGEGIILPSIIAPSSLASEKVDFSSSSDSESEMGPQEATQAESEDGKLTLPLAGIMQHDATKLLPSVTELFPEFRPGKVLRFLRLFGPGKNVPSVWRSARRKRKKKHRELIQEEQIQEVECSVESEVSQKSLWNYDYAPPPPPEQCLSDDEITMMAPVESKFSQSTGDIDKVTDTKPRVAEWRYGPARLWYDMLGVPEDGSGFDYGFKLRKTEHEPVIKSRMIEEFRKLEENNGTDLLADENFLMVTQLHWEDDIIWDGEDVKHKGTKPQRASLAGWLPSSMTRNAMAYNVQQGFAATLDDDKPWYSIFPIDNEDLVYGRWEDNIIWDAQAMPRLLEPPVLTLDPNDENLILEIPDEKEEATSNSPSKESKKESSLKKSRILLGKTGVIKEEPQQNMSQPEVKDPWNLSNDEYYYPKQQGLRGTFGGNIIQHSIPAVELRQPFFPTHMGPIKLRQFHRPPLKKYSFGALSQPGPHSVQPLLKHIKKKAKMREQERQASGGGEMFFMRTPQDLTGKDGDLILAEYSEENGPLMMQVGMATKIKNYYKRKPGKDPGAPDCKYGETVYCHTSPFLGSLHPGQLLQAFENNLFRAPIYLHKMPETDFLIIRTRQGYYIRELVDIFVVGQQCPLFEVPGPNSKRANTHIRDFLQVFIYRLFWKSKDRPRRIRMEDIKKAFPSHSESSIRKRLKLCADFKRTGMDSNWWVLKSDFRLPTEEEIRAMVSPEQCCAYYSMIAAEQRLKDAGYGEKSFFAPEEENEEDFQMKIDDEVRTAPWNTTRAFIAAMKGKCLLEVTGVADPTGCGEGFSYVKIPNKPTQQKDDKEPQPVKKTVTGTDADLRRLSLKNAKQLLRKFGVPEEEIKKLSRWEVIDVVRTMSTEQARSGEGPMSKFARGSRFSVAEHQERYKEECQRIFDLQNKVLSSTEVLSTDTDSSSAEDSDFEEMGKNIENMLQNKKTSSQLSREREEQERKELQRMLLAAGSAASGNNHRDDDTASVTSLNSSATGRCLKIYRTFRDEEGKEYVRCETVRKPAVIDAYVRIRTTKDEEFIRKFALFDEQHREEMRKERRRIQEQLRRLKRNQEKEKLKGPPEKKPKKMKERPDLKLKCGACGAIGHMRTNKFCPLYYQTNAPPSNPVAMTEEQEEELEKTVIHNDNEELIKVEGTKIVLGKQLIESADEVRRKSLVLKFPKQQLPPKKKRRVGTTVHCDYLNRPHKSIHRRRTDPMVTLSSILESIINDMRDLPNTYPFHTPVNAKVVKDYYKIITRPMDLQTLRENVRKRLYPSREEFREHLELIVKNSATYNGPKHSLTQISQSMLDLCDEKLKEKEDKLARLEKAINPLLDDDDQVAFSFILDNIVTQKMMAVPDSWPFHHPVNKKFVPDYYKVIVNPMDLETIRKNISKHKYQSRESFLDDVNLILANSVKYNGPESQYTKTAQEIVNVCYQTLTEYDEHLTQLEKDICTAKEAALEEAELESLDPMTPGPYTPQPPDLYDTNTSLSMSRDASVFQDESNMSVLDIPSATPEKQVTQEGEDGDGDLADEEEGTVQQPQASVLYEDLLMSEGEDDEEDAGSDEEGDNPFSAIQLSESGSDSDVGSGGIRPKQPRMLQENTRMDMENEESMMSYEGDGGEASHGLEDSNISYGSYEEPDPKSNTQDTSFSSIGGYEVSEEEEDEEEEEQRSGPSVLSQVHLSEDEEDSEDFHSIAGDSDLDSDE
Sequence of Bromodomain-containing protein 3 (Homo sapiens) (Q15059 2-726 limits assumed): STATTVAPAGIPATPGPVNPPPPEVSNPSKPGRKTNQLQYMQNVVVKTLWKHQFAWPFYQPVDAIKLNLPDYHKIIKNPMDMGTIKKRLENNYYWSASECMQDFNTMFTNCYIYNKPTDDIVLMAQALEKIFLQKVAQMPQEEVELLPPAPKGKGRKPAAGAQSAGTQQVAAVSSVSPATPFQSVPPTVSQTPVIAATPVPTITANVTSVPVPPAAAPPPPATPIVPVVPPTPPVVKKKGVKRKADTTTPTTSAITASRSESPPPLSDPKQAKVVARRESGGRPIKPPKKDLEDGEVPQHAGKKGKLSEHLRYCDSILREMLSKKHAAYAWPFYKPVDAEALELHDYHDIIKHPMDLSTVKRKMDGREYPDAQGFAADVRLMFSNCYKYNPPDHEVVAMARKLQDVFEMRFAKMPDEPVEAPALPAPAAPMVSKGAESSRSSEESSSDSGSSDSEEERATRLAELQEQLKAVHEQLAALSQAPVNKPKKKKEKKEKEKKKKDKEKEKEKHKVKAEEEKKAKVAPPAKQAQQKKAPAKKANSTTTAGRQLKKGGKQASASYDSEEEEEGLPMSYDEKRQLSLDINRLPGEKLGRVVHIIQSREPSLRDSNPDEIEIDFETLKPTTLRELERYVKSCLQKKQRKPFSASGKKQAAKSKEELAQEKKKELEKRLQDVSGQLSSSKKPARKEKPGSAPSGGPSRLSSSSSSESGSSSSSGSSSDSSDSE

For `COc1cc2c(cc1NS(=O)(=O)c1ccc(Br)cc1C)n(C)c(=O)n2C`, the ΔTm [1] was 0.2 °C, the ΔTm [2] was 1.4 °C and the ΔTm (Homo sapiens [3]) was 3.3 °C. The ΔTm [4] was 1.2 °C, the ΔTm [5] was 0.1 °C and the Activity [6] was 92.6%. For the same molecule, the ΔTm [7] was -0.3 °C, the inhibition at 10 µM [8] was -18% and the ΔTm (Homo sapiens [9]) was 0.5 °C. It also gave an inhibition [10] of 11%, a ΔTm [11] of 1.8 °C and a ΔTm [12] of 0.9 °C. The Activity [13] was 49.9%, the ΔTm (Peregrin (Homo sapiens)) was 6.5 °C and the ΔTm [14] was 1.4 °C. It also gave a ΔTm [15] of 0.2 °C, a TdeltaS [16] of 0.198 kcal/mol and an Activity [17] of 93.6%.
